Data: patent US10227357B2, “Compounds and methods for kinase modulation, and indications therefor” (Plexxikon Inc., priority 2012, dated 2019)

What was measured:
c-kit kinase = biological target: T1, c-kit kinase (Homo sapiens, UniProt P10721); assay: c-Kit biochemical assay, AlphaScreen, 10 μM ATP; settings: c-kit biochemical inhibitory activity; read-out: Biochemical activity (IC50 μM) Kit
T1 construct: The c-kit (or kinase domain thereof) is an active kinase in AlphaScreen; poly-Histidine tag (in-house protein only) (cleaved yes); host or cells: E. coli BL21(DE3)RIL, co-expressed with PTP1B
T1 sequence (P10721 26-976): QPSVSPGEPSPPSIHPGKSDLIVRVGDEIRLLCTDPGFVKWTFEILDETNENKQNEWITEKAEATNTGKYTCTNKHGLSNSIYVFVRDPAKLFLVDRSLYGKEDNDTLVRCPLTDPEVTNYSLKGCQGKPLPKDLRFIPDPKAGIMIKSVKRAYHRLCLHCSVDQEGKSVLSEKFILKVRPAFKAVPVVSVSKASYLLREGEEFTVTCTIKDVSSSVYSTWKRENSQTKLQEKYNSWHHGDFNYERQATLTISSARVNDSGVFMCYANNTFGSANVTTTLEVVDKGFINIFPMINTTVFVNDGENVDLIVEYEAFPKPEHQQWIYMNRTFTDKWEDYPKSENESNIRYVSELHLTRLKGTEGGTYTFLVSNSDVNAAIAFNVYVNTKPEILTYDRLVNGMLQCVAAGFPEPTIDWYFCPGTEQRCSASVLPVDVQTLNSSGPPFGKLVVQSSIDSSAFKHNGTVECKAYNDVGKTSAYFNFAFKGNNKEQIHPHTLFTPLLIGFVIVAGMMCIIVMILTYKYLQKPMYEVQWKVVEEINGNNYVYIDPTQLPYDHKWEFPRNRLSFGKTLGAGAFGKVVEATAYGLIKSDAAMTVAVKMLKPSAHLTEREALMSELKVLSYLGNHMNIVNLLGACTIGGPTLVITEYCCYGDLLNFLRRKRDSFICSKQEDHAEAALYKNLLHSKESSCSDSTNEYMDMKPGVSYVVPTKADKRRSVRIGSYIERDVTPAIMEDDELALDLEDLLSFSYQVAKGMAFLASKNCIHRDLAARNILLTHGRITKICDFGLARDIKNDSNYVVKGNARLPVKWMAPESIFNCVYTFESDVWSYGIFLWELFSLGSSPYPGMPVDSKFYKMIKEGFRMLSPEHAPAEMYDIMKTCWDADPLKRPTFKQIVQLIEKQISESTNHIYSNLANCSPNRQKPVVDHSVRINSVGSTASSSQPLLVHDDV
In short: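 His-tagged c-Kit expressed in E. coli with co-expressed PTP1B (dephosphorylated), tag removed; 0.1 ng per reaction with biotinylated-peptide substrate in 50 mM HEPES pH 7.2, 5 mM MgCl2, 5 mM MnCl2, 5% DMSO, 10 μM ATP, 1 h at room temperature. Phosphorylation detected by AlphaScreen (streptavidin donor, PY20 acceptor beads); IC50 from 8-point 1:3 dilution series.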

c-kit mutant D816V = biological target: T2, c-kit mutant D816V (Homo sapiens, UniProt P10721, D816V/DEL694-753); assay: c-Kit mutant D816V biochemical assay, AlphaScreen; settings: c-kit D816V biochemical inhibitory activity; read-out: Biochemical activity (IC50 μM) Kit D816V
T2 construct: residues 551-934, kinase insertion domain residues 694-753 deleted; 6x-histidine (N); made in house; host or cells: E. coli Arctic Express (DE3) RIL (Stratagene)
T2 sequence (P10721 with tags, fused parts or gaps DEL694-753/D816V): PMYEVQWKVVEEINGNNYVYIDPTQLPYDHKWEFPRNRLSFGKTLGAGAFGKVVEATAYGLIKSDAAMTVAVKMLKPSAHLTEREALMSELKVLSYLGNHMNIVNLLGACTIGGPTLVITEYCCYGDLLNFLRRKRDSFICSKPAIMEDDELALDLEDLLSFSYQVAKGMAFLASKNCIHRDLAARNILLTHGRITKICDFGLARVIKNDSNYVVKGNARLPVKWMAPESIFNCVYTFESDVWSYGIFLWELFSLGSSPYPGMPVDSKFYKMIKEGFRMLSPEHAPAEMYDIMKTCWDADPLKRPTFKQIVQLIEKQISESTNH
In short: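 Purified His-tagged c-Kit D816V (E. coli-expressed) assayed in 25 mM HEPES pH 7.2 with Mg/Mn, 5% DMSO and 10 μM ATP, 30 min at room temperature, 8-point 1:3 dilutions. Phosphorylation detected by AlphaScreen with streptavidin donor and PY20 acceptor beads; IC50 from signal versus concentration.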

Cc1nc(-c2cccc(NC(=O)NC3CCN(c4ncnc5[nH]ccc45)CC3)c2)no1 [P-0507, 1-[3-(5-methyl-1,2,4-oxadiazol-3-yl)phenyl]-3-[1-(7H-pyrrolo[2,3-d]pyrimidin-4-yl)-4-piperidyl]urea]
IC50 (c-kit kinase): 10 to 200 µM
IC50 (c-kit mutant D816V): 10 to 200 µM

O=C(Nc1cccnc1)NC1CCN(c2ncnc3[nH]ccc23)CC1 [P-0508, 1-(3-pyridyl)-3-[1-(7H-pyrrolo[2,3-d]pyrimidin-4-yl)-4-piperidyl]urea]
IC50 (c-kit kinase): 10 to 200 µM
IC50 (c-kit mutant D816V): 10 to 200 µM

O=C(NCc1cccc(F)c1)NC1CCN(c2ncnc3[nH]ccc23)CC1 [P-0510, 1-[(3-fluorophenyl)methyl]-3-[1-(7H-pyrrolo[2,3-d]pyrimidin-4-yl)-4-piperidyl]urea]
IC50 (c-kit kinase): 10 to 200 µM
IC50 (c-kit mutant D816V): 10 to 200 µM

O=C(Nc1cccc(C(F)(F)F)c1)NC1CCN(c2ncnc3[nH]ccc23)CC1 [P-0515, 1-[1-(7H-pyrrolo[2,3-d]pyrimidin-4-yl)-4-piperidyl]-3-[3-(trifluoromethyl)phenyl]urea]
IC50 (c-kit kinase): 1 to 10 µM
IC50 (c-kit mutant D816V): 10 to 200 µM

CCc1ccc(S(=O)(=O)NC2CCN(c3ncnc4[nH]ccc34)CC2)cc1 [P-0525, 4-ethyl-N-[1-(7H-pyrrolo[2,3-d]pyrimidin-4-yl)-4-piperidyl]benzenesulfonamide]
IC50 (c-kit kinase): 10 to 200 µM
IC50 (c-kit mutant D816V): 10 to 200 µM

O=S(=O)(NC1CCN(c2ncnc3[nH]ccc23)CC1)c1cc(F)ccc1F [P-0539, 2,5-difluoro-N-[1-(7H-pyrrolo[2,3-d]pyrimidin-4-yl)-4-piperidyl]benzenesulfonamide]
IC50 (c-kit kinase): 10 to 200 µM
IC50 (c-kit mutant D816V): 10 to 200 µM

COc1ccc(S(=O)(=O)NC2CCN(c3ncnc4[nH]ccc34)CC2)cc1 [P-0540, 4-methoxy-N-[1-(7H-pyrrolo[2,3-d]pyrimidin-4-yl)-4-piperidyl]benzenesulfonamide]
IC50 (c-kit kinase): 10 to 200 µM
IC50 (c-kit mutant D816V): 10 to 200 µM

NC1CCN(c2ncnc3[nH]ccc23)CC1 [P-0541, 1-(7H-pyrrolo[2,3-d]pyrimidin-4-yl)piperidin-4-amine]
IC50 (c-kit kinase): 10 to 200 µM
IC50 (c-kit mutant D816V): 1 to 10 µM

COc1ccc(NC(=O)NC2CCN(c3ncnc4[nH]ccc34)CC2)cc1 [P-0543, 1-(4-methoxyphenyl)-3-[1-(7H-pyrrolo[2,3-d]pyrimidin-4-yl)-4-piperidyl]urea]
IC50 (c-kit kinase): 10 to 200 µM
IC50 (c-kit mutant D816V): 10 to 200 µM

C[C@H](NC(=O)N1CCN(c2ncnc3cc(C4=CCN(C(=O)C5CC5)CC4)sc23)CC1(C)C)c1cccc(Cl)c1 [P-0552, N-[(1S)-1-(3-chlorophenyl)ethyl]-4-[6-[1-(cyclopropanecarbonyl)-3,6-dihydro-2H-pyridin-4-yl]thieno[3,2-d]pyrimidin-4-yl]-2,2-dimethyl-piperazine-1-carboxamide]
IC50 (c-kit kinase): 0.0001 to 1 µM
IC50 (c-kit mutant D816V): 0.0001 to 1 µM

C[C@H](NC(=O)N1CCN(c2ncnc3cc(C4=CCN(S(C)(=O)=O)CC4)sc23)CC1(C)C)c1cccc(Cl)c1 [P-0553, N-[(1S)-1-(3-chlorophenyl)ethyl]-2,2-dimethyl-4-[6-(1-methylsulfonyl-3,6-dihydro-2H-pyridin-4-yl)thieno[3,2-d]pyrimidin-4-yl]piperazine-1-carboxamide]
IC50 (c-kit kinase): 1 to 10 µM
IC50 (c-kit mutant D816V): 0.0001 to 1 µM

O=C(N1CC=C(c2cc3ncnc(-c4ccc(NS(=O)(=O)C5CC5)cc4)c3s2)CC1)N1CCOCC1 [P-0554, N-[4-[6-[1-(morpholine-4-carbonyl)-3,6-dihydro-2H-pyridin-4-yl]thieno[3,2-d]pyrimidin-4-yl]phenyl]cyclopropanesulfonamide]
IC50 (c-kit kinase): 0.0001 to 1 µM
IC50 (c-kit mutant D816V): 0.0001 to 1 µM

CS(=O)(=O)Nc1ccc(-c2ncnc3cc(C4=CCN(C(=O)N5CCOCC5)CC4)sc23)cc1 [P-0555, N-[4-[6-[1-(morpholine-4-carbonyl)-3,6-dihydro-2H-pyridin-4-yl]thieno[3,2-d]pyrimidin-4-yl]phenyl]methanesulfonamide]
IC50 (c-kit kinase): 0.0001 to 1 µM
IC50 (c-kit mutant D816V): 0.0001 to 1 µM

COc1cc(-c2cc3ncnc(N4CCN(C(=O)N[C@@H](C)c5cccc(Cl)c5)C(C)(C)C4)c3s2)ccn1 [P-0556, N-[(1S)-1-(3-chlorophenyl)ethyl]-4-[6-(2-methoxy-4-pyridyl)thieno[3,2-d]pyrimidin-4-yl]-2,2-dimethyl-piperazine-1-carboxamide]
IC50 (c-kit kinase): 1 to 10 µM
IC50 (c-kit mutant D816V): 0.0001 to 1 µM

Cc1nc(C)c(-c2cc3ncnc(N4CCN(C(=O)N[C@@H](C)c5cccc(Cl)c5)C(C)(C)C4)c3s2)s1 [P-0557, N-[(1S)-1-(3-chlorophenyl)ethyl]-4-[6-(2,4-dimethylthiazol-5-yl)thieno[3,2-d]pyrimidin-4-yl]-2,2-dimethyl-piperazine-1-carboxamide]
IC50 (c-kit kinase): 10 to 200 µM
IC50 (c-kit mutant D816V): 0.0001 to 1 µM

C[C@H](NC(=O)N1CCN(c2ncnc3cc(N4CCOCC4)sc23)CC1(C)C)c1cccc(Cl)c1 [P-0558, N-[(1S)-1-(3-chlorophenyl)ethyl]-2,2-dimethyl-4-(6-morpholinothieno[3,2-d]pyrimidin-4-yl)piperazine-1-carboxamide]
IC50 (c-kit kinase): 1 to 10 µM
IC50 (c-kit mutant D816V): 0.0001 to 1 µM

CC(=N)Nc1ccc(-c2ncnc3cc(C4=CCN(C(=O)N5CCOCC5)CC4)sc23)cc1 [P-0559, N-[4-[6-[1-(morpholine-4-carbonyl)-3,6-dihydro-2H-pyridin-4-yl]thieno[3,2-d]pyrimidin-4-yl]phenyl]acetamidine]
IC50 (c-kit kinase): 10 to 200 µM
IC50 (c-kit mutant D816V): 0.0001 to 1 µM

COc1cccc([C@H](C)NC(=O)N2CCN(c3ncnc4cc(N5CCOCC5)sc34)CC2(C)C)c1 [P-0560, N-[(1S)-1-(3-methoxyphenyl)ethyl]-2,2-dimethyl-4-(6-morpholinothieno[3,2-d]pyrimidin-4-yl)piperazine-1-carboxamide]
IC50 (c-kit kinase): 1 to 10 µM
IC50 (c-kit mutant D816V): 0.0001 to 1 µM

O=C(N1CC=C(c2cc3ncnc(-c4ccc(NS(=O)(=O)c5ccc(F)cc5)cc4)c3s2)CC1)N1CCOCC1 [P-0561, 4-fluoro-N-[4-[6-[1-(morpholine-4-carbonyl)-3,6-dihydro-2H-pyridin-4-yl]thieno[3,2-d]pyrimidin-4-yl]phenyl]benzenesulfonamide]
IC50 (c-kit kinase): 0.0001 to 1 µM
IC50 (c-kit mutant D816V): 0.0001 to 1 µM

Cc1nn(C)cc1-c1cc2ncnc(N3CCN(C(=O)N[C@@H](C)c4cccc(Cl)c4)C(C)(C)C3)c2s1 [P-0564, N-[(1S)-1-(3-chlorophenyl)ethyl]-4-[6-(1,3-dimethylpyrazol-4-yl)thieno[3,2-d]pyrimidin-4-yl]-2,2-dimethyl-piperazine-1-carboxamide]
IC50 (c-kit kinase): 1 to 10 µM
IC50 (c-kit mutant D816V): 0.0001 to 1 µM

COc1cccc([C@H](C)NC(=O)N2CC3CCC2CN3c2ncnc3cc(-c4ccc(F)cc4)sc23)c1 (stereo partly drawn) [P-0566, 5-[6-(4-fluorophenyl)thieno[3,2-d]pyrimidin-4-yl]-N-[(1S)-1-(3-methoxyphenyl)ethyl]-2,5-diazabicyclo[2.2.2]octane-2-carboxamide]
IC50 (c-kit kinase): 10 to 200 µM
IC50 (c-kit mutant D816V): 1 to 10 µM

COc1cccc([C@H](C)NC(=O)N2C3CCC2CN(c2ncnc4cc(-c5ccc(F)cc5)sc24)C3)c1 [P-0567, 3-[6-(4-fluorophenyl)thieno[3,2-d]pyrimidin-4-yl]-N-[(1S)-1-(3-methoxyphenyl)ethyl]-3,8-diazabicyclo[3.2.1]octane-8-carboxamide]
IC50 (c-kit kinase): 10 to 200 µM
IC50 (c-kit mutant D816V): 0.0001 to 1 µM

CS(=O)(=O)N1CC=C(c2cc3ncnc(N4CCN(C(=O)NCc5ccc(F)cc5)CC4)c3s2)CC1 [P-0568, N-[(4-fluorophenyl)methyl]-4-[6-(1-methylsulfonyl-3,6-dihydro-2H-pyridin-4-yl)thieno[3,2-d]pyrimidin-4-yl]piperazine-1-carboxamide]
IC50 (c-kit kinase): 1 to 10 µM
IC50 (c-kit mutant D816V): 0.0001 to 1 µM

C[C@H](NC(=O)N1CCN(c2ncnc3cc(C4=CC(C)(C)NC(C)(C)C4)sc23)CC1)c1cccc(Cl)c1 [P-0569, N-[(1S)-1-(3-chlorophenyl)ethyl]-4-[6-(2,2,6,6-tetramethyl-1,3-dihydropyridin-4-yl)thieno[3,2-d]pyrimidin-4-yl]piperazine-1-carboxamide]
IC50 (c-kit kinase): 10 to 200 µM
IC50 (c-kit mutant D816V): 0.0001 to 1 µM

O=C(C1CC1)N1CC=C(c2cc3ncnc(-c4ccc(NS(=O)(=O)c5ccc(F)cc5)cc4)c3s2)CC1 [P-0570, N-[4-[6-[1-(cyclopropanecarbonyl)-3,6-dihydro-2H-pyridin-4-yl]thieno[3,2-d]pyrimidin-4-yl]phenyl]-4-fluoro-benzenesulfonamide]
IC50 (c-kit kinase): 0.0001 to 1 µM
IC50 (c-kit mutant D816V): 0.0001 to 1 µM

O=C(C1CC1)N1CC=C(c2cc3ncnc(-c4ccc(NS(=O)(=O)C5CC5)cc4)c3s2)CC1 [P-0571, N-[4-[6-[1-(cyclopropanecarbonyl)-3,6-dihydro-2H-pyridin-4-yl]thieno[3,2-d]pyrimidin-4-yl]phenyl]cyclopropanesulfonamide]
IC50 (c-kit kinase): 0.0001 to 1 µM
IC50 (c-kit mutant D816V): 0.0001 to 1 µM

CS(=O)(=O)Nc1ccc(-c2ncnc3cc(C4=CCN(C(=O)C5CC5)CC4)sc23)cc1 [P-0572, N-[4-[6-[1-(cyclopropanecarbonyl)-3,6-dihydro-2H-pyridin-4-yl]thieno[3,2-d]pyrimidin-4-yl]phenyl]methanesulfonamide]
IC50 (c-kit kinase): 0.0001 to 1 µM
IC50 (c-kit mutant D816V): 0.0001 to 1 µM

C[C@H](NC(=O)N1CC=C(c2ncnc3cc(-c4ccc(F)cc4)sc23)CC1)c1cccc(OC(F)F)c1 [P-0573, N-[(1S)-1-[3-(difluoromethoxy)phenyl]ethyl]-4-[6-(4-fluorophenyl)thieno[3,2-d]pyrimidin-4-yl]-3,6-dihydro-2H-pyridine-1-carboxamide]
IC50 (c-kit kinase): 10 to 200 µM
IC50 (c-kit mutant D816V): 1 to 10 µM
